In brackets after ≈: the same amount, converted by molar mass. Bridge positions count the residues as written; N and C are the ends. Square brackets hold non-standard residues; d marks the D form. Peptide text beside a SMILES is read from it. I, II: the chains in the order shown. dNMeF = CN[C@H](Cc1ccccc1)C(=O)O
Legend:
A. baumannii = assay type: cell-based
Outline: (§1)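 Serial dilutions prepared in Mueller Hinton through well 11, organisms grown in the same broth and incubated at 37 °C, triplicate runs.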

MRSA = assay type: cell-based, Staphylococcus aureus
Outline: as §1

E. coli = assay type: cell-based, Escherichia coli
Method: Bacteria were grown on Mueller Hinton broth (oxoid). All incubations were at 37° C. Dilutions were carried out using Mueller Hinton. […] This process was repeated up to well 11. […] This was repeated three times. […] Results are tabulated in the Examples.

MIC A baumannii (A. baumannii): 2 µg/mL (≈ 0.981 µM)
MIC (MRSA) (MRSA): 8 µg/mL (≈ 3.92 µM)
MIC Ecoli (E. coli): 16 µg/mL (≈ 7.84 µM)
SMILES: CC[C@@H](C)[C@@H](NC(=O)[C@@H](CCC(N)=O)NC(=O)[C@H](CCCCNC(=O)[C@H](CCCCN)NC(=O)[C@H](CCCCN)NC(=O)[C@H](CCCCN)NC(=O)[C@H](CCCCN)NC(=O)[C@H](CCCCN)NC(=O)[C@@H](N)CCCNC(=N)N)NC(=O)[C@@H](NC(=O)[C@@H](Cc1ccccc1)NC)[C@@H](C)CC)C(=O)N[C@H](C(=O)N[C@@H](CO)C(=O)N[C@H]1C(=O)N[C@@H](C)C(=O)N[C@@H](CC(C)C)C(=O)N[C@@H]([C@@H](C)CC)C(=O)O[C@H]1C)[C@@H](C)CC [Compound 54, Leu10-Teixobactin-3-(S3K-K5R) conjugate] (I: H-[dNMeF]IK[dQ][dI]IS[dT]ALI / II: H-RKKKKK; amide I:3-II:C; ester I:8-I:C)

Source: patent US20240327463A1, “ANTIBACTERIAL PRODUCTS” (priority 2017, published 2024)
